From patent US9884832B2 (priority 2011, dated 2018)

Target: AM2 S31 (wild-type serine at position 31 in the M2 protein), influenza virus A/Udorn/72 (Influenza A virus, UniProt P0DOF5)
Assay: cell-based
Conditions: 100 uM; Xenopus oocytes; activity range class; read-out: S31 OOcyte Inhibition at 100 uM (%)

Chain of AM2 S31 (wild-type serine at position 31 in the M2 protein), influenza virus A/Udorn/72 (P0DOF5 whole entry, looked up): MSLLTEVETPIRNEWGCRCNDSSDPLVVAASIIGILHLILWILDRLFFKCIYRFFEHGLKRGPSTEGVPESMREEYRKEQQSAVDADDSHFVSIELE

| Compound | inhibition at 100 µM [%] |
| --- | --- |
| Cc1nc(CNC23CC4CC(CC(C4)C2)C3)c[nH]1 [Example 99a, N-((2-methyl-1H-imidazol-4-yl)methyl)adamantan-1-amine] | 0 to 30 |
| O=[N+]([O-])c1ccc(CNC23CC4CC(CC(C4)C2)C3)s1 [Example 100a, N-((5-nitrothiophen-2-yl)methyl)adamantan-1-amine] | 31 to 95 |
| CC(C)(C)c1cc(CNC23CC4CC(CC(C4)C2)C3)[nH]n1 [Example 101a, N-((3-(tert-butyl)-1H-pyrazol-5-yl)methyl)adamantan-1-amine] | 0 to 30 |
| CC(C)c1nc(CNC23CC4CC(CC(C4)C2)C3)no1 [Example 102a, N-((5-isopropyl-1,2,4-oxadiazol-3-yl)methyl)adamantan-1-amine] | 0 to 30 |
| CC(C)(C)c1nc(CNC23CC4CC(CC(C4)C2)C3)no1 [Example 103a, N-((5-(tert-butyl)-1,2,4-oxadiazol-3-yl)methyl)adamantan-1-amine] | 0 to 30 |
| Brc1ncc(CNC23CC4CC(CC(C4)C2)C3)s1 [Example 104a, N-((2-bromothiazol-5-yl)methyl)adamantan-1-amine] | 0 to 30 |
| Brc1csc(CNC23CC4CC(CC(C4)C2)C3)c1 [Example 105a, N-((4-bromothiophen-2-yl)methyl)adamantan-1-amine] | 31 to 95 |
| c1c(CNC23CC4CC(CC(C4)C2)C3)noc1CN1CCOCC1 [Example 106a, N-((5-(morpholinomethyl)isoxazol-3-yl)methyl)adamantan-1-amine] | 0 to 30 |
| c1c(CNC23CC4CC(CC(C4)C2)C3)noc1C1CC1 [Example 107a, N-((5-cyclopropylisoxazol-3-yl)methyl)adamantan-1-amine] | 0 to 30 |
| c1cc(C2CC2)sc1CNC12CC3CC(CC(C3)C1)C2 [Example 108a, N-((5-cyclopropylthiophen-2-yl)methyl)adamantan-1-amine] | 0 to 30 |
| C1CCC(c2nc(CNC34CC5CC(CC(C5)C3)C4)no2)C1 [Example 109a, N-((5-cyclopentyl-1,2,4-oxadiazol-3-yl)methyl)adamantan-1-amine] | 0 to 30 |
| COc1ccc(-c2cc(CNC34CC5CC(CC(C5)C3)C4)no2)cc1 [Example 110a, N-((5-(4-methoxyphenyl)isoxazol-3-yl)methyl)adamantan-1-amine] | 0 to 30 |
| CSc1ccc(-c2ccc(CNC34CC5CC(CC(C5)C3)C4)s2)cc1 [Example 112a, N-((5-(4-(methylthio)phenyl)thiophen-2-yl)methyl)adamantan-1-amine] | 0 to 30 |
| COc1ccc(-c2ccc(CNC34CC5CC(CC(C5)C3)C4)s2)cc1 [Example 113a, N-((5-(4-methoxyphenyl)thiophen-2-yl)methyl)adamantan-1-amine] | 0 to 30 |
| c1ccc(-c2nc(CNC34CC5CC(CC(C5)C3)C4)c[nH]2)cc1 [Example 114a, N-((2-phenyl-1H-imidazol-4-yl)methyl)adamantan-1-amine] | 31 to 95 |
| c1ccc(-c2nnc(CNC34CC5CC(CC(C5)C3)C4)o2)cc1 [Example 115a, N-((5-phenyl-1,3,4-oxadiazol-2-yl)methyl)adamantan-1-amine] | 0 to 30 |

| Compound | inhibition at 100 µM [%] |
| --- | --- |
| c1ccc(-c2cc(CNC34CC5CC(CC(C5)C3)C4)no2)cc1 [Example 116a, N-((5-phenylisoxazol-3-yl)methyl)adamantan-1-amine] | 0 to 30 |
| Brc1ccc(-c2cc(CNC34CC5CC(CC(C5)C3)C4)on2)cc1 [Example 117a, N-((3-(4-bromophenyl)isoxazol-5-yl)methyl)adamantan-1-amine] | 0 to 30 |
| Fc1ccc(-c2cc(CNC34CC5CC(CC(C5)C3)C4)no2)cc1 [Example 118a, N-((5-(4-fluorophenyl)isoxazol-3-yl)methyl)adamantan-1-amine] | 0 to 30 |
| Clc1ccc(-c2cc(CNC34CC5CC(CC(C5)C3)C4)no2)cc1 [Example 119a, N-((5-(4-chlorophenyl)isoxazol-3-yl)methyl)adamantan-1-amine] | 0 to 30 |
| Cc1ccc(-c2cc(CNC34CC5CC(CC(C5)C3)C4)no2)cc1 [Example 120a, N-((5-(p-tolyl)isoxazol-3-yl)methyl)adamantan-1-amine] | 0 to 30 |
| Brc1ccc(-c2cc(CNC34CC5CC(CC(C5)C3)C4)no2)cc1 [Example 121a, N-((5-(4-bromophenyl)isoxazol-3-yl)methyl)adamantan-1-amine] | 0 to 30 |
| COc1ccc(-c2cc(CNC34CC5CC(CC(C5)C3)C4)on2)cc1 [Example 122a, N-((3-(4-methoxyphenyl)isoxazol-5-yl)methyl)adamantan-1-amine] | 0 to 30 |
| c1ccc(-c2noc(CNC34CC5CC(CC(C5)C3)C4)n2)cc1 [Example 123a, N-((3-phenyl-1,2,4-oxadiazol-5-yl)methyl)adamantan-1-amine] | 0 to 30 |
| CC(C)(C)c1ccc(-c2noc(CNC34CC5CC(CC(C5)C3)C4)n2)cc1 [Example 124a, N-((3-(4-(tert-butyl)phenyl)-1,2,4-oxadiazol-5-yl)methyl)adamantan-1-amine] | 0 to 30 |
| FC(F)(F)c1cccc(-c2nc(CNC34CC5CC(CC(C5)C3)C4)no2)c1 [Example 125a, N-((5-(3-(trifluoromethyl)phenyl)-1,2,4-oxadiazol-3-yl)methyl)adamantan-1-amine] | 0 to 30 |
| COc1ccc(-c2nc(CNC34CC5CC(CC(C5)C3)C4)no2)cc1 [Example 126a, N-((5-(4-methoxyphenyl)-1,2,4-oxadiazol-3-yl)methyl)adamantan-1-amine] | 0 to 30 |
| COc1ccc(-c2nnc(CNC34CC5CC(CC(C5)C3)C4)o2)cc1 [Example 127a, N-((5-(4-methoxyphenyl)-1,3,4-oxadiazol-2-yl)methyl)adamantan-1-amine] | 0 to 30 |
| Cc1ccc(-c2nc(CNC34CC5CC(CC(C5)C3)C4)no2)cc1 [Example 128a, N-((5-(p-tolyl)-1,2,4-oxadiazol-3-yl)methyl)adamantan-1-amine] | 0 to 30 |
| FC(F)(F)c1ccc(-c2nc(CNC34CC5CC(CC(C5)C3)C4)no2)cc1 [Example 129a, N-((5-(4-(trifluoromethyl)phenyl)-1,2,4-oxadiazol-3-yl)methyl)adamantan-1-amine] | 0 to 30 |
| c1ccc(-c2nc(CNC34CC5CC(CC(C5)C3)C4)no2)cc1 [Example 131a, N-((5-phenyl-1,2,4-oxadiazol-3-yl)methyl)adamantan-1-amine] | 0 to 30 |

Same assay, conditions: Table 1; 100 uM; Xenopus oocytes, pH 5.5, -20 mV; read-out: S31 OOcyte Inhibition at 100 uM (%)

| Compound | inhibition at 100 µM [%] |
| --- | --- |
| Oc1ccc(CNC2C3CC4CC(C3)CC2C4)cc1 (stereo not shown) [Example 99, 4-(Adamantan-2-ylaminomethyl)-phenol] | 31 to 95 |
| Oc1ccc(CNC2C3CC4CC(C3)CC2C4)c(O)c1 (stereo not shown) [Example 100, 4-(Adamantan-2-ylaminomethyl)-benzene-1,3-diol] | 31 to 95 |
| Oc1ccc(CNC2C3CC4CC(C3)CC2C4)cc1O (stereo not shown) [Example 101, 4-(Adamantan-2-ylaminomethyl)-benzene-1,2-diol] | 31 to 95 |
| CC(NC1C2CC3CC(C2)CC1C3)c1ccc(O)cc1O (stereo not shown) [Example 102, 4-[1-(Adamantan-2-ylamino)-ethyl]-benzene-1,3-diol] | 31 to 95 |
| CSc1ccc(CNC2C3CC4CC(C3)CC2C4)cc1 (stereo not shown) [Example 103, Adamantan-2-yl-(4-methylsulfanyl-benzyl)-amine] | 0 to 30 |
| OC1CCN(C2C3CC4CC(C3)CC2C4)CC1 (stereo not shown) [Example 104, 1-Adamantan-2-yl-piperidin-4-ol] | 0 to 30 |
| c1c(CNC2C3CC4CC(C3)CC2C4)nc2n1CCS2 (stereo not shown) [Example 105, Adamantan-2-yl-(2,3-dihydro-imidazo[2,1-b]thiazol-6-ylmethyl)-amine] | 31 to 95 |
| Cc1nn2cc(CNC3C4CC5CC(C4)CC3C5)nc2s1 (stereo not shown) [Example 106, Adamantan-2-yl-(2-methyl-imidazo[2,1-b][1,3,4]thiadiazol-6-ylmethyl)-amine] | 0 to 30 |
| c1cn2cc(CNC3C4CC5CC(C4)CC3C5)nc2s1 (stereo not shown) [Example 107, Adamantan-2-yl-imidazo[2,1-b]thiazol-6-ylmethyl-amine] | 31 to 95 |
| CC1(C)CCC(NCc2ccc(O)cc2O)CC1 [Example 108, 4-[(4,4-Dimethyl-cyclohexylamino)-methyl]-benzene-1,3-diol] | 31 to 95 |
| CC(C)(C)C1CCC(NCc2ccc(O)cc2O)CC1 (stereo not shown) [Example 109, 4-[(4-tert-Butyl-cyclohexylamino)-methyl]-benzene-1,3-diol] | 31 to 95 |
| Oc1ccc(CNC23CC4CCC(CC(C4)C2)C3)c(O)c1 [Example 110, 4-(Tricyclo[4.3.1.13,8]undec-1-ylaminomethyl)-benzene-1,3-diol] | 31 to 95 |
| Oc1ccc(CNC23CC4CC(CC2C4)C3)c(O)c1 [Example 111, 4-[(Hexahydro-2,5-methano-pentalen-3a-ylamino)-methyl]-benzene-1,3-diol] | 31 to 95 |
| CC(C)(C)CC(C)(C)NCc1ccc(O)cc1O [Example 112, 4-[(1,1,3,3-Tetramethyl-butylamino)-methyl]-benzene-1,3-diol] | 31 to 95 |
| C[Si](C)(C)CCCNCc1ccc(O)cc1O [Example 113, 4-[(3-Trimethylsilanyl-propylamino)-methyl]-benzene-1,3-diol] | 31 to 95 |
| CC1(C)C2CCC(CNCc3ccc(O)cc3O)C1C2 (stereo not shown) [Example 114, 4-{[(6,6-Dimethyl-bicyclo[3.1.1]hept-2-ylmethyl)-amino]methyl}-benzene-1,3-diol] | 31 to 95 |
| Oc1ccc(CN2CCC3(CCCCC3)CC2)c(O)c1 [Example 115, 4-(3-Aza-spiro[5.5]undec-3-ylmethyl)-benzene-1,3-diol] | 31 to 95 |
| Oc1ccc(CN2CC3CC4CC(C3)CC2C4)c(O)c1 [Example 116, 4-(4-Aza-tricyclo[4.3.1.13,8]undec-4-ylmethyl)-benzene-1,3-diol] | 31 to 95 |
